{"source": "patent US8338429B2", "about": "“2-acylaminothiazole derivative or salt thereof” (Astellas Pharma, Inc., priority 2002, dated 2012)", "key": {"Human CD34+ cells": {"tested_on": "Human CD34+ cells", "experiment": "Test for measuring effects of promoting the formation of megakaryocytic colonies", "assay_type": "cell-based", "details": "megakaryocytic colonies per well, 10-14 days", "method": "Human CD34^+ cells were cultured at 37° C. for 10-14 days in the presence of tested materials in a 2 well chamber slide, using MegaCult™-C (Stem Cell Technologies). In accordance with the attached instructions, dehydration, fixing, and staining with antihuman glycoprotein IIb/IIIa antibody were carried out. A group of 3 or more stained megakaryocytes was regarded as 1 colony, and the number of colonies per well was measured with a microscope. EC30 values of each tested compound were calculated from a capacity curve."}, "human c-mpl-Ba/F3 cells [1]": {"tested_on": "human c-mpl-Ba/F3 cells", "experiment": "Oral administration test for mice (c-mpl-Ba/F3 proliferation activity of plasma)", "assay_type": "in vivo", "details": "male ICR mice, final plasma concentration 10%, maximum of each tested compound = 100%", "method": "To male ICR mice, a tested compound dissolved or suspended in 0.5% methylcellulose aqueous solution was orally administrated in an amount of 100 mg/kg or 10 mg/kg. […] Plasma obtained by centrifugation at 12,000 rpm for 3 minutes was warmed up at 56° C. for 30 minutes, and added to the human c-mpl.Ba/F3 cell proliferation system described in (i) such that the final plasma concentration became 10%, and then cell proliferation activity was measured. The cell proliferation activity (%) of each plasma batch, when maximum cell proliferation activity of each tested compound was set to 100%, was calculated."}, "human c-mpl-Ba/F3 cells [2]": {"tested_on": "human c-mpl-Ba/F3 cells", "experiment": "Human c-mpl-Ba/F3 cell proliferation test", "assay_type": "cell-based", "details": "for pot.: concentration promoting cell proliferation to 30% of maximum cell proliferation activity value of Example 9 (of rhTPO for rhTPO), 24 hours culture; for Efficacy: maximum cell proliferation activity, maximum of Example 9 (of rhTPO for rhTPO) set to 100%", "method": "In a 96 well microplate, 2×10^5 cells/ml of human c-mpl-Ba/F3 cells were cultured at 37° C. for 24 hours with 10% fetal bovine serum containing a RPMI1640 medium (100 μl/well) to which varied concentrations of tested compounds were respectively added. After the culturing, 10 μl/well of WST-1/1-methoxy PMS (cell counting kit, Dojindo) were added. Immediately after the adding and after 2 hours, absorbance of A450/A650 was measured with a microplate reader (Model 3350:Bio-Rad), and the absorbance increase after 2 hours was regarded as proliferation activity of each tested compound.\npot.: Concentration of tested compound for promoting cell proliferation of the compound of Example 9 (compound of Example 9 and rhTPO in rhTPO) to 30% of maximum cell proliferation activity value.\nEfficacy: Maximum cell proliferation activity value of tested compound when the maximum cell proliferation activity value of the compound of Example 9 (compound of Example 9 and rhTPO in rhTPO) is set to 100%."}, "[3]": {"details": "plasma 2 hours after 10 mg/kg p.o."}, "[4]": {"details": "plasma 2 hours after 100 mg/kg p.o."}}, "note": "Counter-ions that a name gives are not always drawn."}
{"compound": "O=C(Nc1nc(-c2cc(Cl)cs2)c(N2CCN(C3CCCCC3)CC2)s1)c1cnc(OCCCO)c(Cl)c1", "note": "[Example 250, 5-chloro-N-[4-(4-chlorothiophen-2-yl)-5-(4-cyclohexylpiperazin-1-yl)thiazol-2-yl]-6-(3-hydroxypropoxy)nicotinamide]", "values": [{"measurement": "EC30", "setting": "Human CD34+ cells", "result": 0.026, "unit": "µM"}, {"measurement": "Cell proliferation activity", "setting": "human c-mpl-Ba/F3 cells [1]; [3]", "result": ">80", "unit": "%"}, {"measurement": "pot.", "setting": "human c-mpl-Ba/F3 cells [2]", "result": 6.7, "unit": "nM"}, {"measurement": "Efficacy", "setting": "human c-mpl-Ba/F3 cells [2]", "result": 87, "unit": "%"}]}
{"compound": "O=C(Nc1nc(-c2cc(Cl)cs2)c(N2CCN(C3CCCCC3)CC2)s1)c1ccc2cnccc2c1", "note": "[Example 214, N-[4-(4-chlorothiophen-2-5-yl)-5-(4-cyclohexylpiperazin-1-yl)thiazol-2-yl]isoquinoline-6-carboxamide]", "values": [{"measurement": "Cell proliferation activity", "setting": "human c-mpl-Ba/F3 cells [1]; [3]", "result": ">80", "unit": "%"}, {"measurement": "pot.", "setting": "human c-mpl-Ba/F3 cells [2]", "result": 15, "unit": "nM"}, {"measurement": "Efficacy", "setting": "human c-mpl-Ba/F3 cells [2]", "result": 106, "unit": "%"}]}
{"compound": "Cc1sc(NC(=O)c2ccc(/C=C(\\Cl)C(=O)O)cc2)nc1-c1cccc(C(F)(F)F)c1", "note": "[Control 3, reference compound]", "values": [{"measurement": "Cell proliferation activity", "setting": "human c-mpl-Ba/F3 cells [1]; [4]", "result": "<10", "unit": "%"}, {"measurement": "pot.", "setting": "human c-mpl-Ba/F3 cells [2]", "result": 6.9, "unit": "nM"}, {"measurement": "Efficacy", "setting": "human c-mpl-Ba/F3 cells [2]", "result": 96, "unit": "%"}]}
{"compound": "O=C(O)/C(Cl)=C/c1ccc(C(=O)Nc2nc(-c3ccc(Cl)c(Cl)c3)cs2)cc1", "note": "[Control 2, reference compound]", "values": [{"measurement": "Cell proliferation activity", "setting": "human c-mpl-Ba/F3 cells [1]; [4]", "result": "<10", "unit": "%"}, {"measurement": "pot.", "setting": "human c-mpl-Ba/F3 cells [2]", "result": 2.1, "unit": "nM"}, {"measurement": "Efficacy", "setting": "human c-mpl-Ba/F3 cells [2]", "result": 96, "unit": "%"}]}
{"compound": "rhTPO: thrombopoietin (TPO), a c-Mpl ligand playing an important role in differentiation into megakaryocytes", "values": [{"measurement": "pot.", "setting": "human c-mpl-Ba/F3 cells [2]", "result": 0.012, "unit": "nM"}, {"measurement": "Efficacy", "setting": "human c-mpl-Ba/F3 cells [2]", "result": 100, "unit": "%"}]}
{"compound": "CCCC1CCN(c2sc(NC(=O)c3ccnc(OC)c3)nc2-c2cc(Cl)cs2)CC1", "note": "[Example 66]", "values": [{"measurement": "EC30", "setting": "Human CD34+ cells", "result": 0.047, "unit": "µM"}, {"measurement": "Cell proliferation activity", "setting": "human c-mpl-Ba/F3 cells [1]; [3]", "result": 61, "unit": "%"}, {"measurement": "pot.", "setting": "human c-mpl-Ba/F3 cells [2]", "result": 14, "unit": "nM"}, {"measurement": "Efficacy", "setting": "human c-mpl-Ba/F3 cells [2]", "result": 99, "unit": "%"}]}
{"compound": "CCCN1CCN(c2sc(NC(=O)c3ccc(OCCO)c(Cl)c3)nc2-c2cc(Cl)cs2)CC1", "note": "[Example 103, 3-chloro-N-[4-(4-chlorothiophen-2-yl)-5-(4-propylpiperazin-1-yl)thiazol-2-yl]-4-(2-hydroxyethoxy)benzamide]", "values": [{"measurement": "pot.", "setting": "human c-mpl-Ba/F3 cells [2]", "result": 18, "unit": "nM"}, {"measurement": "Efficacy", "setting": "human c-mpl-Ba/F3 cells [2]", "result": 97, "unit": "%"}]}
{"compound": "O=C(Nc1nc(-c2cc(Cl)cs2)c(N2CCN(C3CCCCC3)CC2)s1)c1ccc(OCCO)c(Cl)c1", "note": "[Example 9, 3-chloro-N-[4-(4-chlorothiophen-2-yl)-5-(4-cyclohexylpiperazin-1-yl)thiazol-2-yl]-4-(2-hydroxyethoxy)benzamide hydrochloride]", "values": [{"measurement": "EC30", "setting": "Human CD34+ cells", "result": 0.012, "unit": "µM"}, {"measurement": "pot.", "setting": "human c-mpl-Ba/F3 cells [2]", "result": 10, "unit": "nM"}, {"measurement": "Efficacy", "setting": "human c-mpl-Ba/F3 cells [2]", "result": 87, "unit": "%"}]}
{"compound": "Cl.O=C(Nc1nc(-c2cc(Cl)cs2)c(N2CCN(C3CCCCC3)CC2)s1)c1cnc(N2CCC(C(=O)O)CC2)c(Cl)c1", "note": "[Example 16, 1-(3-chloro-5-{[4-(4-chlorothiophen-2-yl)-5-(4-cyclohexylpiperzain-1-yl)thiazol-2-yl]carbamoyl}pyridin-2-yl)piperidine-4-carboxylic acid hydrochloride]", "values": [{"measurement": "Cell proliferation activity", "setting": "human c-mpl-Ba/F3 cells [1]; [3]", "result": ">80", "unit": "%"}, {"measurement": "pot.", "setting": "human c-mpl-Ba/F3 cells [2]", "result": 2.4, "unit": "nM"}, {"measurement": "Efficacy", "setting": "human c-mpl-Ba/F3 cells [2]", "result": 93, "unit": "%"}]}
{"compound": "O=C1NC(=S)S/C1=C\\c1ccc(C(=O)Nc2nc(-c3ccc(Cl)c(Cl)c3)cs2)cc1", "note": "[Control 1, reference compound]", "values": [{"measurement": "Cell proliferation activity", "setting": "human c-mpl-Ba/F3 cells [1]; [4]", "result": "<10", "unit": "%"}, {"measurement": "pot.", "setting": "human c-mpl-Ba/F3 cells [2]", "result": 4.4, "unit": "nM"}, {"measurement": "Efficacy", "setting": "human c-mpl-Ba/F3 cells [2]", "result": 101, "unit": "%"}]}
